# Experimental data taken from the NIST ThermoML archive (doi:10.1016/j.fluid.2018.06.003).
# ± gives the expanded uncertainty stated by the source.
# Legend:
# [1] = refractive index (Na D-line) (dimensionless); xn = mol fraction of the nth substance listed; conditions: 298.15 K; 101 kPa; Liquid; Standard Abbe refractometry; x1 = 0.3336
# [2] = xn = mol fraction of the nth substance listed; conditions: 298.15 K; 101 kPa; Liquid; Vibrating tube method; x1 = 0.3336
smiles,measurement,setting,value
C[N+](C)(C)C.[Cl-] [tetramethylammonium chloride] + OCC(O)CO,refractive index,[1],1.47183 ± 0.00044
same,mass density,[2],1145.22 ± 2.1 kg/m3
